# *1 amine or outer side, *2 acyl side, *3 side chain or, on linkers, in order; H or OH if unused. Where a SMILES comes first, the peptide text is derived from it. Side-chain parts run from the residue outwards. [ ]: non-standard residue; d: D form. The star is where a group is joined. C20 diacid = O=C(O)CCCCCCCCCCCCCCCCCCC(=O)*; C18 diacid = O=C(O)CCCCCCCCCCCCCCCCC(=O)*; C16 diacid = O=C(O)CCCCCCCCCCCCCCC(=O)*; γGlu = O=C(O)[C@H](CCC(=O)[*:2])N[*:1]; NMeI = CC[C@H](C)[C@H](NC)C(=O)O; AEEA = NCCOCCOCC(=O)O; Aib = CC(C)(N)C(=O)O
# Test system: human LAD2 cells
# Type: cell-based
# Outline: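 Mast cell degranulation: cells exposed to peptides for 30 min at final concentrations from 50, 100 or 300 down to 0.1 or 0.001 μM, with 0.5% DMSO where used, in biological duplicates. β-hexosaminidase release was read with a fluorogenic 4-methylumbelliferyl substrate as supernatant/(supernatant + Triton-lysed pellet) × 100. EC50 came from a 4-parameter sigmoidal fit.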
row,Compound,EC50 [µM]
1,CC[C@H](C)[C@H](NC(C)=O)C(=O)N[C@H](C(=O)N[C@@H](CC(C)C)C(=O)N[C@@H](CO)C(=O)N[C@@H](CC(C)C)C(=O)N[C@@H](CC(=O)O)C(=O)N[C@@H](C(=O)N1CCC[C@H]1C(=O)N[C@H](C(=O)N[C@@H](CCCCN)C(=O)N[C@@H](CC(C)C)C(=O)N[C@@H](CCCCNC(=O)CC[C@H](NC(=O)CC[C@H](NC(=O)CCCCCCCCCCCCCCCCCCC(=O)O)C(=O)O)C(=O)O)C(=O)N[C@@H](CCCCN)C(=O)N[C@H](C(=O)N[C@@H](CC(C)C)C(=O)N[C@@H](CC(C)C)C(=O)N[C@@H](CCC(=O)O)C(=O)N[C@@H](CCC(N)=O)C(=O)N[C@@H](CCC(=O)O)C(=O)N[C@@H](CCCCN)C(=O)N[C@@H](CCC(N)=O)C(=O)N[C@@H](CCCCN)C(=O)N[C@@H](CCC(=O)O)C(=O)N[C@@H](CCC(N)=O)C(=O)N[C@@H](CCCNC(=N)N)C(=O)N[C@@H](CCC(=O)O)C(=O)N[C@@H](CCC(N)=O)C(=O)N[C@@H](C)C(=O)N[C@@H](CCC(=O)O)C(=O)N[C@H](C(=O)N[C@@H](CC(N)=O)C(=O)NC(C)(C)C(=O)N[C@@H](CCC(N)=O)C(=O)N[C@H](C(=O)N[C@@H](CC(C)C)C(=O)N[C@@H](C)C(=O)N[C@@H](CCC(N)=O)C(=O)N[C@H](C(N)=O)C(C)C)[C@@H](C)CC)[C@@H](C)O)[C@@H](C)CC)[C@@H](C)CC)C(C)C)C(C)C [Cmpd 241] (Ac-IVLSLD[dV]PIKLK([γGlu-γGlu-C20 diacid])KILLEQEKQKEQREQAETN[Aib]QILAQV-NH2),> 300
2,CC[C@H](C)[C@H](NC(C)=O)C(=O)N[C@H](C(=O)N[C@@H](CC(C)C)C(=O)N[C@@H](CO)C(=O)N[C@@H](CC(C)C)C(=O)N[C@@H](CC(=O)O)C(=O)N[C@@H](C(=O)N1CCC[C@H]1C(=O)N[C@H](C(=O)N[C@@H](CCCCN)C(=O)N[C@@H](CC(C)C)C(=O)N[C@@H](CCCCNC(=O)CC[C@H](NC(=O)CCCCCCCCCCCCCCC(=O)O)C(=O)O)C(=O)N[C@@H](CCCCN)C(=O)N[C@H](C(=O)N[C@@H](CC(C)C)C(=O)N[C@@H](CC(C)C)C(=O)N[C@@H](CCC(=O)O)C(=O)N[C@@H](CCC(N)=O)C(=O)N[C@@H](CCC(=O)O)C(=O)N[C@@H](CCCCN)C(=O)N[C@@H](CCC(N)=O)C(=O)N[C@@H](CCCCN)C(=O)N[C@@H](CCCCN)C(=O)N[C@@H](CCC(N)=O)C(=O)N[C@@H](CCCNC(=N)N)C(=O)N[C@@H](CCC(=O)O)C(=O)N[C@@H](CCC(N)=O)C(=O)N[C@@H](C)C(=O)N[C@@H](CCC(=O)O)C(=O)N[C@H](C(=O)N[C@@H](CC(N)=O)C(=O)N[C@@H](CCC(=O)O)C(=O)N[C@@H](CCC(N)=O)C(=O)N[C@H](C(=O)N[C@@H](CC(C)C)C(=O)N[C@@H](C)C(=O)N[C@@H](CCC(N)=O)C(=O)N[C@H](C(N)=O)C(C)C)[C@@H](C)CC)[C@@H](C)O)[C@@H](C)CC)[C@@H](C)CC)C(C)C)C(C)C [56 (comp)] (Ac-IVLSLD[dV]PIKLK([γGlu-C16 diacid])KILLEQEKQKKQREQAETNEQILAQV-NH2),38.5
3,CC[C@H](C)[C@H](NC)C(=O)N[C@H](C(=O)N[C@@H](CC(C)C)C(=O)N[C@@H](CO)C(=O)N[C@@H](CC(C)C)C(=O)N[C@@H](CC(=O)O)C(=O)N[C@@H](C(=O)N1CCC[C@H]1C(=O)N[C@H](C(=O)N[C@@H](CCCCN)C(=O)N[C@@H](CC(C)C)C(=O)N[C@@H](CCCCNC(=O)CC[C@H](NC(=O)CCCCCCCCCCCCCCCCCCC(=O)O)C(=O)O)C(=O)N[C@@H](CCCCN)C(=O)N[C@H](C(=O)N[C@@H](CC(C)C)C(=O)N[C@@H](CC(C)C)C(=O)N[C@@H](CCC(=O)O)C(=O)N[C@@H](CCC(N)=O)C(=O)N[C@@H](CCC(=O)O)C(=O)N[C@@H](CCCCN)C(=O)N[C@@H](CCC(N)=O)C(=O)N[C@@H](CCCCN)C(=O)NC(C)(C)C(=O)N[C@@H](CCC(N)=O)C(=O)N[C@@H](CCCNC(=N)N)C(=O)N[C@@H](CCC(=O)O)C(=O)N[C@@H](CCC(N)=O)C(=O)N[C@@H](C)C(=O)N[C@@H](CCC(=O)O)C(=O)N[C@H](C(=O)N[C@@H](CC(N)=O)C(=O)NC(C)(C)C(=O)N[C@@H](CCC(N)=O)C(=O)N[C@H](C(=O)N[C@@H](CC(C)C)C(=O)N[C@@H](C)C(=O)N[C@@H](CCC(N)=O)C(=O)N[C@H](C(N)=O)C(C)C)[C@@H](C)CC)[C@@H](C)O)[C@@H](C)CC)[C@@H](C)CC)C(C)C)C(C)C [Cmpd 215] (H-[NMeI]VLSLD[dV]PIKLK([γGlu-C20 diacid])KILLEQEKQK[Aib]QREQAETN[Aib]QILAQV-NH2),> 100
4,CC[C@H](C)[C@H](NC)C(=O)N[C@H](C(=O)N[C@@H](CC(C)C)C(=O)N[C@@H](CO)C(=O)N[C@@H](CC(C)C)C(=O)N[C@@H](CC(=O)O)C(=O)N[C@@H](C(=O)N1CCC[C@H]1C(=O)N[C@H](C(=O)N[C@@H](CCCCN)C(=O)N[C@@H](CC(C)C)C(=O)N[C@@H](CCCCNC(=O)COCCOCCNC(=O)CC[C@H](NC(=O)CCCCCCCCCCCCCCCCCCC(=O)O)C(=O)O)C(=O)N[C@@H](CCCCN)C(=O)N[C@H](C(=O)N[C@@H](CC(C)C)C(=O)N[C@@H](CC(C)C)C(=O)N[C@@H](CCC(=O)O)C(=O)N[C@@H](CCC(N)=O)C(=O)N[C@@H](CCC(=O)O)C(=O)N[C@@H](CCCCN)C(=O)N[C@@H](CCC(N)=O)C(=O)N[C@@H](CCCCN)C(=O)N[C@@H](CCC(=O)O)C(=O)N[C@@H](CCC(N)=O)C(=O)N[C@@H](CCCNC(=N)N)C(=O)N[C@@H](CCC(=O)O)C(=O)N[C@@H](CCC(N)=O)C(=O)N[C@@H](C)C(=O)N[C@@H](CCC(=O)O)C(=O)N[C@H](C(=O)N[C@@H](CC(N)=O)C(=O)NC(C)(C)C(=O)N[C@@H](CCC(N)=O)C(=O)N[C@H](C(=O)N[C@@H](CC(C)C)C(=O)N[C@@H](C)C(=O)N[C@@H](CCC(N)=O)C(=O)N[C@H](C(N)=O)C(C)C)[C@@H](C)CC)[C@@H](C)O)[C@@H](C)CC)[C@@H](C)CC)C(C)C)C(C)C [Cmpd 233] (H-[NMeI]VLSLD[dV]PIKLK([AEEA-γGlu-C20 diacid])KILLEQEKQKEQREQAETN[Aib]QILAQV-NH2),> 300
5,CC[C@H](C)[C@H](NC(C)=O)C(=O)N[C@H](C(=O)N[C@@H](CC(C)C)C(=O)N[C@@H](CO)C(=O)N[C@@H](CC(C)C)C(=O)N[C@@H](CC(=O)O)C(=O)N[C@@H](C(=O)N1CCC[C@H]1C(=O)N[C@H](C(=O)N[C@@H](CCCCN)C(=O)N[C@@H](CC(C)C)C(=O)N[C@@H](CCCCNC(=O)COCCOCCNC(=O)CC[C@H](NC(=O)CCCCCCCCCCCCCCCCCCC(=O)O)C(=O)O)C(=O)N[C@@H](CCCCN)C(=O)N[C@H](C(=O)N[C@@H](CC(C)C)C(=O)N[C@@H](CC(C)C)C(=O)N[C@@H](CCC(=O)O)C(=O)N[C@@H](CCC(N)=O)C(=O)N[C@@H](CCC(=O)O)C(=O)N[C@@H](CCCCN)C(=O)N[C@@H](CCC(N)=O)C(=O)N[C@@H](CCCCN)C(=O)N[C@@H](CCC(=O)O)C(=O)N[C@@H](CCC(N)=O)C(=O)N[C@@H](CCCNC(=N)N)C(=O)N[C@@H](CCC(=O)O)C(=O)N[C@@H](CCC(N)=O)C(=O)N[C@@H](C)C(=O)N[C@@H](CCC(=O)O)C(=O)N[C@H](C(=O)N[C@@H](CC(N)=O)C(=O)NC(C)(C)C(=O)N[C@@H](CCC(N)=O)C(=O)N[C@H](C(=O)N[C@@H](CC(C)C)C(=O)N[C@@H](C)C(=O)N[C@@H](CCC(N)=O)C(=O)N[C@H](C(N)=O)C(C)C)[C@@H](C)CC)[C@@H](C)O)[C@@H](C)CC)[C@@H](C)CC)C(C)C)C(C)C [Cmpd 231] (Ac-IVLSLD[dV]PIKLK([AEEA-γGlu-C20 diacid])KILLEQEKQKEQREQAETN[Aib]QILAQV-NH2),47.5
6,CC[C@H](C)[C@H](NC)C(=O)N[C@H](C(=O)N[C@@H](CC(C)C)C(=O)N[C@@H](CO)C(=O)N[C@@H](CC(C)C)C(=O)N[C@@H](CC(=O)O)C(=O)N[C@@H](C(=O)N1CCC[C@H]1C(=O)N[C@H](C(=O)N[C@@H](CCCCN)C(=O)N[C@@H](CC(C)C)C(=O)N[C@@H](CCCCNC(=O)CC[C@H](NC(=O)CCCCCCCCCCCCCCCCC(=O)O)C(=O)O)C(=O)N[C@@H](CCCCN)C(=O)N[C@H](C(=O)N[C@@H](CC(C)C)C(=O)N[C@@H](CC(C)C)C(=O)N[C@@H](CCC(=O)O)C(=O)N[C@@H](CCC(N)=O)C(=O)N[C@@H](CCC(=O)O)C(=O)N[C@@H](CCCCN)C(=O)N[C@@H](CCC(N)=O)C(=O)N[C@@H](CCCCN)C(=O)NC(C)(C)C(=O)N[C@@H](CCC(N)=O)C(=O)N[C@@H](CCCNC(=N)N)C(=O)N[C@@H](CCC(=O)O)C(=O)N[C@@H](CCC(N)=O)C(=O)N[C@@H](C)C(=O)N[C@@H](CCC(=O)O)C(=O)N[C@H](C(=O)N[C@@H](CC(N)=O)C(=O)NC(C)(C)C(=O)N[C@@H](CCC(N)=O)C(=O)N[C@H](C(=O)N[C@@H](CC(C)C)C(=O)N[C@@H](C)C(=O)N[C@@H](CCC(N)=O)C(=O)N[C@H](C(N)=O)C(C)C)[C@@H](C)CC)[C@@H](C)O)[C@@H](C)CC)[C@@H](C)CC)C(C)C)C(C)C [Cmpd 145] (H-[NMeI]VLSLD[dV]PIKLK([γGlu-C18 diacid])KILLEQEKQK[Aib]QREQAETN[Aib]QILAQV-NH2),> 100
7,CC[C@H](C)[C@H](N)C(=O)N[C@H](C(=O)N[C@@H](CC(C)C)C(=O)N[C@@H](CO)C(=O)N[C@@H](CC(C)C)C(=O)N[C@@H](CC(=O)O)C(=O)N[C@H](C(=O)N1CCC[C@H]1C(=O)N[C@H](C(=O)N[C@@H](CCCCN)C(=O)N[C@@H](CC(C)C)C(=O)N[C@@H](CCCCNC(=O)COCCOCCNC(=O)COCCOCCNC(=O)CC[C@H](NC(=O)CCCCCCCCCCCCCCCCC(=O)O)C(=O)O)C(=O)N[C@@H](CCCCN)C(=O)N[C@H](C(=O)N[C@@H](CC(C)C)C(=O)N[C@@H](CC(C)C)C(=O)N[C@@H](CCC(=O)O)C(=O)N[C@@H](CCC(N)=O)C(=O)N[C@@H](CCC(=O)O)C(=O)N[C@@H](CCCCN)C(=O)N[C@@H](CCC(N)=O)C(=O)N[C@@H](CCCCN)C(=O)N[C@@H](CCCCN)C(=O)N[C@@H](CCC(N)=O)C(=O)N[C@@H](CCCNC(=N)N)C(=O)N[C@@H](CCC(=O)O)C(=O)N[C@@H](CCC(N)=O)C(=O)N[C@@H](C)C(=O)N[C@@H](CCC(=O)O)C(=O)N[C@H](C(=O)N[C@@H](CC(N)=O)C(=O)N[C@@H](CCCCN)C(=O)N[C@@H](CCC(N)=O)C(=O)N[C@H](C(=O)N[C@@H](CC(C)C)C(=O)N[C@@H](C)C(=O)N[C@@H](CCC(N)=O)C(=O)N[C@H](C(N)=O)C(C)C)[C@@H](C)CC)[C@@H](C)O)[C@@H](C)CC)[C@@H](C)CC)C(C)C)C(C)C [149 (comp)] (H-IVLSLDVPIKLK([AEEA-AEEA-γGlu-C18 diacid])KILLEQEKQKKQREQAETNKQILAQV-NH2),50.4
